Article PMC6708471 (Cell calcium, 2019)

How the values were obtained:
[1] = biological target: T1, calmodulin (CaM) (Homo sapiens, UniProt P0DP25); assay: X-ray crystal structure; assay type: biochemical
[2] = biological target: T1, calmodulin (CaM); assay: […]-1H HSQC NMR titration; assay type: binding

EC50 [1] | SMILES | 15N-1H HSQC NMR titration (intermediate exchange, modest affinity) [2]
5.1 ± 1.4 µM | COc1ccc(S(=O)(=O)N(CCO)c2ccccc2CN(C)C/C=C/c2ccc(Cl)cc2)cc1 [KN93] | –
– | COc1ccc(S(=O)(=O)Nc2ccccc2CN(C)C/C=C/c2ccc(Cl)cc2)cc1 [KN92] | We found that KN92 also affects the CaM NMR spectrum as many of the cross peaks disappear.
